In patent US20070010402A1, “Novel herbicides, usage thereof, novel thienopyrimidine derivatives, intermediates of the same, and process for production thereof” (NIHON NOHYAKU CO., LTD.,, priority 2002, published 2007):

Tests used:
Chenopodium album = experiment: Field soil treatment test (Test Example 2); assay type: in vivo; settings: soil spray after seeding, wettable powder, active ingredient 10 g/a, 21st day from the treatment
Protocol: (§1) The herbicidal effect was evaluated in terms of herbicidal rate obtained from the following equation: Herbicidal rate (%)=[1−(Weight of weeds above the ground in a treated plot)/(Weight of weeds above the ground in a non-treated plot)]×100 and was expressed by herbicidal index according to the following criteria. [table] Alluvial soil from a field was put in a resin-made vat having an area of 200 cm^2. After fertilization, the seeds of Digitaria ciliaris, Chenopodium album and Polygonum lapathifolium were cast on the soil and uniformly covered with the soil. The wettable powder obtained in Formulation Example 1 was diluted with water and a predetermined amount thereof was sprayed uniformly to the soil by means of a small-sized power pressure spray so as to give 10 g of the active ingredient per an are. Thereafter, cultivation was further continued in the greenhouse, and the herbicidal effect was examined on the 21st day from the treatment. The results obtained are shown in Table 8 (the compound numbers in Table 8 correspond to those in Tables 1 to 6).

Digitaria ciliaris = experiment: Field soil treatment test (Test Example 2); assay type: in vivo; settings: soil spray after seeding, wettable powder, active ingredient 10 g/a, 21st day from the treatment
Protocol: as §1

Polygonum lapathifolium = experiment: Field soil treatment test (Test Example 2); assay type: in vivo; settings: soil spray after seeding, wettable powder, active ingredient 10 g/a, 21st day from the treatment
Protocol: as §1

Echinochloa oryzicola = experiment: Submerged foliar treatment test (Test Example 3); assay type: in vivo; settings: water depth 3 cm, cotyledon to 1-leaf stage, wettable powder, active ingredient 10 g/a, 28th day from the treatment
Protocol: (§2) The herbicidal effect was evaluated in terms of herbicidal rate obtained from the following equation: Herbicidal rate (%)=[1−(Weight of weeds above the ground in a treated plot)/(Weight of weeds above the ground in a non-treated plot)]×100
(§3) and was expressed by herbicidal index according to the following criteria.
(§4) Alluvial soil from a paddy field was put in a resin-made vat having an area of 200 cm^2. After fertilization, seeds of Echinochloa oryzicola, Rotala indica and Scirpus juncoides were cast on the soil and uniformly covered with the soil, and water was poured onto the soil to keep a water depth of 3 cm. Then, cultivation was continued in a greenhouse, and when the weeds to be tested reached the cotyledon stage to 1-leaf stage, the wettable powder obtained in Formulation Example 1 was diluted with water and a predetermined amount thereof was added dropwise uniformly to the weeds by means of a pipette to give 10 g of the active ingredient per an are. Thereafter, cultivation was further continued in the greenhouse, and the herbicidal effect was examined on the 28th day from the treatment. The results obtained are shown in Table 9 (the compound numbers in Table 9 correspond to those in Tables 1 to 6).

Rotala indica = experiment: Submerged foliar treatment test (Test Example 3); assay type: in vivo; settings: water depth 3 cm, cotyledon to 1-leaf stage, wettable powder, active ingredient 10 g/a, 28th day from the treatment
Protocol: as §2, §3, §4

Scirpus juncoides = experiment: Submerged foliar treatment test (Test Example 3); assay type: in vivo; settings: water depth 3 cm, cotyledon to 1-leaf stage, wettable powder, active ingredient 10 g/a, 28th day from the treatment
Protocol: as §2, §3, §4

| SMILES | Herbicidal effect Chenopodium album (herbicidal index) (Chenopodium album) | Herbicidal effect Digitaria ciliaris (herbicidal index) (Digitaria ciliaris) | Herbicidal effect Polygonum lapathifolium (herbicidal index) (Polygonum lapathifolium) | melting point | other results |
| --- | --- | --- | --- | --- | --- |
| Cc1cc2c(-c3cccc(C(F)(F)F)c3)nc(OC(C)(C)C)nc2s1 [6-27] | 5 (91 to 100) | 5 (91 to 100) | 4 (71 to 90) | – | – |
| Cc1cc2c(-c3ccc(F)c(C(F)(F)F)c3)nc(OC(C)C)nc2s1 [6-30] | 5 (91 to 100) | 5 (91 to 100) | 5 (91 to 100) | – | – |
| Cc1cc2c(-c3cccc(OC(F)(F)F)c3)nc(OC(C)C)nc2s1 [6-36] | 5 (91 to 100) | 5 (91 to 100) | 5 (91 to 100) | – | – |
| CCOc1nc(-c2ccccc2C(F)(F)F)c2cc(C)sc2n1 [6-43] | 5 (91 to 100) | 5 (91 to 100) | 2 (31 to 50) | – | – |
| C=CCOc1nc(-c2cccc(C(F)(F)F)c2)c2cc(C)sc2n1 [6-88] | 5 (91 to 100) | 5 (91 to 100) | 5 (91 to 100) | – | – |
| Cc1cc2c(-c3cccc(C(F)(F)F)c3)nc(OC(C)C(F)(F)F)nc2s1 (stereo not shown) [6-100] | 5 (91 to 100) | 5 (91 to 100) | 5 (91 to 100) | – | – |
| Cc1cc2c(-c3cccc(C(F)(F)F)c3)nc(OCC(F)(F)C(F)(F)F)nc2s1 [6-101] | 5 (91 to 100) | 5 (91 to 100) | 4 (71 to 90) | – | – |
| Cc1cc2c(-c3cccc(C(F)(F)F)c3)nc(OCC(F)(F)C(F)F)nc2s1 [6-103] | 5 (91 to 100) | 5 (91 to 100) | 5 (91 to 100) | – | – |
| Cc1cc2c(-c3cccc(OC(F)(F)F)c3)nc(OCCF)nc2s1 [6-107] | 5 (91 to 100) | 5 (91 to 100) | 5 (91 to 100) | – | – |
| Cc1cc2c(-c3cccc(OC(F)(F)F)c3)nc(OCC(F)(F)F)nc2s1 [6-108] | 5 (91 to 100) | 5 (91 to 100) | 5 (91 to 100) | – | – |
| Cc1cc2c(-c3cccc(OC(F)(F)F)c3)nc(OC(C)C(F)(F)F)nc2s1 (stereo not shown) [6-110] | 5 (91 to 100) | 5 (91 to 100) | 5 (91 to 100) | – | – |
| Cc1cc2c(-c3cccc(OC(F)(F)F)c3)nc(OCC(F)(F)C(F)(F)F)nc2s1 [6-111] | 5 (91 to 100) | 5 (91 to 100) | 5 (91 to 100) | – | – |
| Cc1cc2c(-c3cccc(SC(F)(F)F)c3)nc(OCC(F)(F)C(F)F)nc2s1 [6-119] | 5 (91 to 100) | 5 (91 to 100) | 5 (91 to 100) | – | – |
| Cc1cc2c(-c3cccc(OC(F)F)c3)nc(OCC(F)(F)F)nc2s1 [6-121] | 5 (91 to 100) | 5 (91 to 100) | 5 (91 to 100) | – | – |
| Cc1cc2c(-c3cccc(OC(F)F)c3)nc(OCC(F)F)nc2s1 [6-122] | 5 (91 to 100) | 5 (91 to 100) | 5 (91 to 100) | – | – |
| Cc1cc2c(-c3cccc(C(F)(F)F)c3)nc(OS(C)(=O)=O)nc2s1 [6-148] | 5 (91 to 100) | 5 (91 to 100) | 4 (71 to 90) | – | – |

| SMILES | Herbicidal effect Chenopodium album (herbicidal index) (Chenopodium album) | Herbicidal effect Digitaria ciliaris (herbicidal index) (Digitaria ciliaris) | Herbicidal effect Polygonum lapathifolium (herbicidal index) (Polygonum lapathifolium) | melting point | other results |
| --- | --- | --- | --- | --- | --- |
| Cc1cc2c(-c3cccc(C(F)(F)F)c3)nc(-n3cccc3)nc2s1 [6-189] | 4 (71 to 90) | 5 (91 to 100) | 3 (51 to 70) | – | – |
| Cc1cc2c(-c3cccc(C(F)(F)F)c3)nc(-n3ccc(C(F)(F)F)n3)nc2s1 [6-198] | 5 (91 to 100) | 5 (91 to 100) | 5 (91 to 100) | – | – |
| Cc1cc2c(-c3cccc(OC(F)(F)F)c3)nc(-n3ccc(C(F)(F)F)n3)nc2s1 [6-199] | 5 (91 to 100) | 5 (91 to 100) | 5 (91 to 100) | – | – |
| Cc1cc2c(-n3ccc(C(F)(F)F)n3)nc(-n3ccc(C(F)(F)F)n3)nc2s1 [6-200] | – | – | – | – | Herbicidal effect Echinochloa oryzicola (herbicidal index) (Echinochloa oryzicola): 3 (51 to 70); Herbicidal effect Rotala indica (herbicidal index) (Rotala indica): 5 (91 to 100); Herbicidal effect Scirpus juncoides (herbicidal index) (Scirpus juncoides): 3 (51 to 70) |
| Cc1cc2c(Oc3cccc(C(F)(F)F)c3)nc(-n3ccc(C(F)(F)F)n3)nc2s1 [6-201] | – | – | – | – | Herbicidal effect Echinochloa oryzicola (herbicidal index) (Echinochloa oryzicola): 5 (91 to 100); Herbicidal effect Rotala indica (herbicidal index) (Rotala indica): 5 (91 to 100); Herbicidal effect Scirpus juncoides (herbicidal index) (Scirpus juncoides): 3 (51 to 70) |
| Cc1cc2c(-c3cccc(C(F)(F)F)c3)nc(O)nc2s1 [Compound No. 4-3, 6-methyl-4-[3-(trifluoromethyl)phenyl]thieno[2,3-d]pyrimidine-2-ol] | – | – | – | 251 to 253 °C (dec.) | – |
| Cc1cc2c(-c3cccnc3Cl)nc(O)nc2s1 [Compound No. 4-22, 4-(2-chloropyridine-3-yl)-6-methylthieno[2,3-d]pyrimidine-2-ol] | – | – | – | > 300 °C | – |
| Cc1cc2c(-c3ccccc3C(F)(F)F)nc(Cl)nc2s1 [Compound No. 5-3] | – | – | – | – | Herbicidal effect Echinochloa oryzicola (herbicidal index) (Echinochloa oryzicola): 5 (91 to 100); Herbicidal effect Rotala indica (herbicidal index) (Rotala indica): 5 (91 to 100); Herbicidal effect Scirpus juncoides (herbicidal index) (Scirpus juncoides): 3 (51 to 70) |
| Cc1cc2c(-c3cccc(C(F)(F)F)c3)nc(Cl)nc2s1 [Compound No. 5-4, 2-chloro-6-methyl-4-[3-(trifluoromethyl)phenyl]thieno[2,3-d]pyrimidine] | – | – | – | 108 °C | – |
| Cc1cc2c(-c3sccc3C)nc(Cl)nc2s1 [Compound No. 5-22, 2-chloro-6-methyl-4-(3-methylthiophen-2-yl)thieno[2,3-d]pyrimidine] | – | – | – | 127 °C | – |
| Cc1cc2c(-c3sc(C=O)cc3C)nc(Cl)nc2s1 [Compound No. 5-23, 2-chloro-4-(5-formyl-3-methylthiophen-2-yl)-6-methylthieno[2,3-d]pyrimidine] | – | – | – | 204 to 206 °C (dec.) | – |
| Cc1cc2nc(Cl)nc(-c3cccc(C(F)(F)F)c3)c2s1 [Compound No. 5-34, 2-chloro-6-methyl-4-[3-(trifluoromethyl)phenyl]thieno[3,2-d]pyrimidine] | – | – | – | 174 to 176 °C (dec.) | – |
| Cc1cc2c(-c3cccc(C(F)(F)F)c3)ncnc2s1 [Compound No. 6-9, 6-methyl-4-[3-(trifluoromethyl)phenyl]thieno[2,3-d]pyrimidine] | – | – | – | 70 to 72 °C | – |
| CNc1nc(-c2ccc(C(F)(F)F)cc2)c2cc(C)sc2n1 [Compound No. 6-168, 6-methyl-2-(methylamino)-4-[4-(trifluoromethyl)phenyl]thieno[2,3-d]pyrimidine] | – | – | – | 233 °C | – |
| CSc1nc(-c2ccc(C(F)(F)F)cc2)c2cc(C)sc2n1 [Compound No. 6-171, 6-methyl-2-methylthio-4-[4-(trifluoromethyl)phenyl]thieno[2,3-d]pyrimidine] | – | – | – | 113 °C | – |
| Cc1cc2c(-c3cccc(C(F)(F)F)c3)nc(C(=O)O)nc2s1 [Compound No. 6-180, 6-methyl-4-[3-(trifluoromethyl)phenyl]thieno[2,3-d]pyrimidine-2-carboxylic acid] | – | – | – | 226 to 227 °C (dec.) | – |
